Source: patent publication US20200376068A1, “PROTECTION OF NORMAL TISSUE IN CANCER TREATMENT” (THOMAS JEFFERSON UNIVERSITY, priority 2017, published 2020)
Bridge positions count the residues as written; N and C are the ends. Ends that are not written are not given here. Peptide text beside a SMILES is read from it.

Tests used:
[1] = system: p53; test: Immunoblot of total and phosphorylated p53 in irradiated HCT116 cells; type: cell-based, human; settings: 5 Gy radiation, 500 μM
[2] = system: p53-Mdm2 interaction; test: Immunoprecipitation of p53-Mdm2 in irradiated HCT116 cells; type: cell-based, human; settings: 5 Gy radiation, IP and Western Blot
Description: McCoy's 5A and Dulbecco's Modified Eagle Medium (DMEM) containing 10% fetal bovine serum and other reagents for cell culture were obtained from Life Technologies (Rockville, Md.). 8-Bromoguanosine 3′, 5′-cyclic monophosphate (8-Br-cGMP), a cell-permeant analog of cGMP, was obtained from Sigma (St. Louis, Mo.) and 500 μM was used in all experiments (18,20,25,26,34).
Mouse IgG (5 μg, cat. #10400C, Invitrogen) and rabbit IgG (5 μg, cat. #10400C, Invitrogen) were isotype controls for immunoprecipitation.

[3] = system: HCT116 human colon carcinoma cells (parental); test: Anaphase bridge index and aneuploidy after 5 Gy; type: cell-based; settings: pretreatment 500 μM
Description: (§1) Cells preconditioned with 8-Br-cGMP, or control cells, were irradiated (5 Gy), then seeded on coverslips in 24-well plates (5×10^4 cells per well). ABI and aneuploidy were quantified 2 d after irradiation.
(§2) ABI: Cells were fixed in 4% PFA and stained with DAPI. Anaphase cells were analyzed and abnormal anaphase cells were calculated under a fluorescence microscope. More than 200 anaphase cells were analyzed in each treatment group in each independent experiment. Any abnormal anaphase cells with anaphase bridges or anaphase lag showing extended chromosome bridging between two spindle poles were enumerated and the ABI was calculated as percentage of abnormal anaphase cells over total anaphase cells.
(§3) Aneuploidy: Cells were fixed in 4% PFA and stained with DAPI, and immunofluorescence stains were performed using α/β-tubulin-specific antibodies and […] γ-tubulin antibodies, detected with Alexa Fluor® 555 or Alexa Fluor® 488 labeled secondary antibodies from Invitrogen. […] Abnormal anaphase chromatids were counted if cells contained more than two centrosomes or two centrosomes located in the same direction to the spindle midzone separated from kinetochores at the poles.

[4] = system: HCT116 p53-null cells; test: Anaphase bridge index and aneuploidy after 5 Gy; type: cell-based, human; settings: pretreatment 500 μM
Description: as §1, §2, §3

[5] = system: HCT116 cells (parental); test: Colony formation assay after irradiation; type: cell-based, human; settings: parental HCT116, 0-4 Gy, 500 μM for 7 d before and after irradiation, vs PBS
Description: (§4) HCT116 and HCT116 p53-null cells were plated in 6-well dishes at 1×10^4 cells/well followed by treatment for 7 d with vehicle or cell permeable cGMP (8-Br-cGMP, 500 μM). Media containing different treatments were changed every other day. After exposure to radiation (0-4 Gy) cells were trypsinized and plated in 6-well dishes at different densities depending on the potency of the treatments (10^4 cells/well for HCT116 exposed at 0, 1 and 2 Gy; 4×10^4 cells/well for HCT116 p53-null exposed at 0, 1 and 2 Gy; 50×10^4 cells/well for HCT116 exposed at 3 and 4 Gy; 200×10^4 cells/well for HCT116 p53-null exposed at 3 and 4 Gy). […] The number of colonies, defined as >50 cells/colony were counted, and the surviving fraction was calculated as the ratio of the number of colonies in the treated sample to the number of colonies produced by cells that were not irradiated. […]
(§5) Statistical significance was determined by unpaired two-tailed Student's t test unless otherwise indicated. […] Survival and disease-free survival were analyzed by Kaplan-Meier analysis. Body weight was analyzed using a frailty model combining a segmented linear longitudinal model of body weight, a log-normal model for survival time, and a log-normal model for random break point for body weight (inflection point). […] Colony formation was analyzed by a pairwise comparison in four treatments with isotherm slopes by linear regression.

[6] = system: HCT116 p53-null cells; test: Colony formation assay after irradiation; type: cell-based, human; settings: 0-4 Gy, 500 μM, vs PBS
Description: as §4, §5

[7] = system: intestinal stem cells (ISCs); test: Quantification of crypt Lgr5+GFP+ and Bmi1+ stem cells in Gucy2c−/− mice; type: in vivo, mouse
Description: (§6) Gucyc^−/− (Glucy2^ctm1Gar[63]), Lgr5-EGFP-CreERT2 (B6.129P2-Lgr5^tm1(cre/ERT2)Cle/J; Jax, Bar Harbor, Me., #008875) and Rosa-STOP^fl-LacZ (B6.129S4-Gt(ROSA)26Sor^tm1Sor/J; Jax #003474) transgenic mouse lines were interbred to generate offspring with the desired alleles. All mice were co-housed and Gucy2c^+/+ (wild type) littermates with the appropriate alleles were used as controls. Tissues were harvested from adult mice (12-16 wk of age). Cre was induced with a single 200 μL dose of tamoxifen (Sigma; Billerica, Mass.; T5648) in sunflower oil at 10 mg/ml. Tauroursodeoxycholic Acid (TUDCA, Millipore 580549) treatments were administered daily for 3 d at 100 mg/kg/day intraperitoneally. Mice were exposed to a single 10 Gy dose of whole-body γ-irradiation with a PanTak, 310 kVe x-ray machine and tissues were harvested at noted time points after irradiation. In some experiments, mice were gavaged daily for 7 d with 100 μL of 20 mM 8-cpt-cGMP. Each point in a graph (n) represents one mouse unless otherwise noted. All animal protocols were approved by the Thomas Jefferson University Institutional
Intestines were harvested from mice, fixed in formalin, and embedded in paraffin as previously described. Sections (4 μM) were cut then rehydrated in a sequential ethanol-to-water bath and stained with hematoxylin and eosin or antigen-specific primary and secondary antibodies. Primary antibodies for immunofluorescence included: anti-GFP, anti-Bmi1, and anti-GRP78 (Abcam; Cambridge, M A); anti-phospho VASP Ser239 (Sigma; Billerica, Mass.); and anti-GUCY2C (prepared and validated in-house). Secondary antibodies were from Life Technologies (Waltham, Mass.) and specific to the primary hosts. Tyramide signal amplification was used to detect GUCY2C; secondary antibodies conjugated to horseradish peroxidase were from Jackson immunoresearch Laboratories (cat #115-035-206 and #111-036-046, 1:1000 dilution), and fluorescein-conjugated tyramine was prepared from tyramine HCl (cat #T2879, Sigma) and NHS-fluorescein (cat #46410, Thermo Scientific) as described. For visualization of Rosa-LacZ lineage tracing, tamoxifen-induced recombinant Cre intestines were prepared as described previously. At least 4 intestinal circumference sections were evaluated per mouse.

[8] = system: Grp78 (BiP); test: Crypt ER stress, Grp78 (BiP) expression; type: in vivo, mouse; settings: Gucy2c−/− mice
Description: as §6
Intestines were harvested from mice, fixed in formalin, and embedded in paraffin as previously described. […] At least 4 intestinal circumference sections were evaluated per mouse.

[9] = system: intestinal crypts; test: Ex vivo enteroid formation from crypts; type: cell-based, mouse; settings: crypts of Gucy2c+/+ mice, oral linaclotide
Description: Crypt isolation for subsequent analyses (enteroid assay, florescence-activated cell sorting (FACS), immunoblot) was performed using a variation of the chelation dissociation method. Briefly, intestines were harvested, villi were gently scraped off for the small intestine, and tissues were minced and incubated in a 10 mM EDTA/Ca-free, Mg-free Hank's Balanced Salt Solution (HBSS) on ice for a total of 40 min, Throughout this time, solutions were intermittently shaken by hand at the speed of two shakes/second, supernatant was disposed a total of six times, and fresh EDTA/HBSS was added after each disposal. Tissue was incubated undisturbed for 30 min on ice followed by vigorous pipetting with a 10 mL pipet to dissociate the remaining crypts. Crypts were filtered through a […] strainer and pelleted. For enteroid culture, the same number of crypts for each genotype (ranging from 300-1500 crypts/well) were resuspended in a matrigel droplet (BD, 354230), pipetted briefly with a 1000 μL micropipette, plated in 30 μL, and overlaid with 350 μL of intesticult media (Stem Cell Technologies, Vancouver. Canada: 06005). For FACS, crypts were incubated in 0.25% trypsin (Thermo Scientific, Philadelphia, Pa.; 15050065) at 37° C. until a single cell suspension was obtained (not more than 10 min). Cells were then filtered a second time using a 40 μM strainer and kept in EDTA solution for sorting.

[10] = system: patients with irritable bowel syndrome; settings: oral; cited from earlier work
[11] = cited from earlier work
[12] = target: guanylate cyclase (ST receptors) (Homo sapiens, UniProt P25092); settings: relative to native ST; cited from earlier work
[13] = system: irradiated intestinal tissue; settings: mice lacking genes encoding GCC or uroguanylin; cited from earlier work

Sequence of guanylate cyclase (ST receptors) (P25092 24-1073): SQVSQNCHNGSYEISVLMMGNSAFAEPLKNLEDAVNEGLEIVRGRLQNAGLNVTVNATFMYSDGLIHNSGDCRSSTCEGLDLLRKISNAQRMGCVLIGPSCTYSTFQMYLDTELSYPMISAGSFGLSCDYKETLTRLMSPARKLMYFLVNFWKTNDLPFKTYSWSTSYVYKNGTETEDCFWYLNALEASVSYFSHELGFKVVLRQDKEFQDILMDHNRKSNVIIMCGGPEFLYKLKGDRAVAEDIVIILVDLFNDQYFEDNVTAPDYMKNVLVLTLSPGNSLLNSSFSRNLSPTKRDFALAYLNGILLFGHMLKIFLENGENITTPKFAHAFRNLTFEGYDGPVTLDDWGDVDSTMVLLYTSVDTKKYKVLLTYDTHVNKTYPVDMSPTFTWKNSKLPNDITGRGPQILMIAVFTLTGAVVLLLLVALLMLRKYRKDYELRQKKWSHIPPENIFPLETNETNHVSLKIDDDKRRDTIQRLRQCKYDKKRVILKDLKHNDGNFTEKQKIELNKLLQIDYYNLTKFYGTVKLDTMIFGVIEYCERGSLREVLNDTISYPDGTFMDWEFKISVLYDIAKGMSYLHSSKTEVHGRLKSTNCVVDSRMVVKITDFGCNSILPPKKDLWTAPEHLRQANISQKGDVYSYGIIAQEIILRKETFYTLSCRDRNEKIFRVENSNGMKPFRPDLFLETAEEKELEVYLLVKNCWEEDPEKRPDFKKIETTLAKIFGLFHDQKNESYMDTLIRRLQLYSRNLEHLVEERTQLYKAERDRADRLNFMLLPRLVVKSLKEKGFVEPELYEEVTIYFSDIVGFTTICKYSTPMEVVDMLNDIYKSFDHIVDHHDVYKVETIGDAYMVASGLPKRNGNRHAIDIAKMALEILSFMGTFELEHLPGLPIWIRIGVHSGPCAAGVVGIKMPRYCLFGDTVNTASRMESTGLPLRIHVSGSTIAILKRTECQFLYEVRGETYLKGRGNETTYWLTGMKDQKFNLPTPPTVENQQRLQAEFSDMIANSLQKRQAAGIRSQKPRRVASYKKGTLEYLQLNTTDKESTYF

Nc1nc2c(nc(Br)n2[C@@H]2O[C@@H]3COP(=O)(O)O[C@H]3[C@H]2O)c(=O)[nH]1 [8-Br-cGMP, 8-Bromoguanosine 3′, 5′-cyclic monophosphate]
phosphorylated p53 [1]: increased
total p53 [1]: increased
p53-Mdm2 interaction [2]: disrupting
p53 activation [2]: increased
chromosomal instability quantified by anaphase bridge index [3]: reduced
chromosomal instability quantified by centrosome counts (aneuploidy) [3]: reduced
chromosomal instability quantified by anaphase bridge index [4]: insensitive
chromosomal instability quantified by centrosome counts (aneuploidy) [4]: insensitive
cytogenetic toxicity induced by increasing doses of radiation, quantified by colony formation [5]: reduced
cytogenetic toxicity induced by increasing doses of radiation, quantified by colony formation [6]: not significant
Bmi1+ cells in crypts [7]: comparable to those in Gucy2c^+/+ mice
Lgr5+GFP+ cells in crypts [7]: comparable to those in Gucy2c^+/+ mice
BiP (Grp78) expression in crypts [8]: mimicked

C[C@H](CCC(=O)NCCS(=O)(=O)O)[C@H]1CC[C@H]2[C@@H]3[C@@H](O)C[C@@H]4C[C@H](O)CC[C@]4(C)[C@H]3CC[C@]12C [TUDCA, tauroursodeoxycholic acid]
Bmi1+ cells in crypts [7]: restored
Lgr5+GFP+ cells in crypts [7]: restored
BiP (Grp78) expression in crypts [8]: restored normal BiP expression

C[C@@H]1NC(=O)[C@@H]2CCCN2C(=O)[C@H](CC(N)=O)NC(=O)[C@@H]2CSSC[C@H](N)C(=O)N[C@H]3CSSC[C@H](NC1=O)C(=O)N[C@@H]([C@@H](C)O)C(=O)NCC(=O)N[C@H](C(=O)N[C@@H](Cc1ccc(O)cc1)C(=O)O)CSSC[C@H](NC(=O)[C@H](Cc1ccc(O)cc1)NC(=O)[C@H](CCC(=O)O)NC3=O)C(=O)N2 [linaclotide] (H-CCEYCCNPACTGCY-OH; disulfide 1-6, 2-10, 5-13)
efficiency of enteroid formation [9]: amplified
abdominal pain [10]: relieve
constipation [10]: improve
oral bioavailability or bioactivity outside the GI tract [11]: negligible

CC(C)C[C@H](NC(=O)[C@@H]1CSSC[C@@H]2NC(=O)[C@H](CC(C)C)NC(=O)[C@H](CCC(=O)O)NC(=O)[C@@H](NC(=O)[C@H](CCC(=O)O)NC(=O)[C@H](CC(=O)O)NC(=O)[C@@H](N)CC(N)=O)CSSC[C@H](NC(=O)[C@H](C)NC(=O)[C@H](C(C)C)NC(=O)[C@H](CC(N)=O)NC(=O)[C@H](C(C)C)NC2=O)C(=O)N[C@@H]([C@@H](C)O)C(=O)NCC(=O)N1)C(=O)O [plecanatide] (H-NDECELCVNVACTGCL-OH; disulfide 4-12, 7-15)
abdominal pain [10]: relieve
constipation [10]: improve
oral bioavailability or bioactivity outside the GI tract [11]: negligible

Guanylin: 15 amino acid peptide from mammalian intestine, about 50% sequence homology to ST; endogenous GCC agonist (PGTCEICAYAACTGC; ends and bridges not checked; cysteine pairing not given here; UniProt Q02747 101-115, looked up)
activates guanylate cyclase at a level less than native ST [12]: 10- to 100 fold

cGMP
level of apoptosis in irradiated intestinal tissue [13]: ameliorated
